Source: patent US20230125667A1, “NOVEL TDZD ANALOGS AS AGENTS THAT DELAY, PREVENT, OR REVERSE AGE-ASSOCIATED DISEASES AND AS ANTI-CANCER AND ANTILEUKEMIC AGENTS” (United States Government as represented by the Department …, priority 2020, published 2023)
Where two headings read alike, the source gives them in different places.

Key:
BT-549 = experiment: NCI-60 growth inhibition: BT-549 (Breast Cancer); assay type: cell-based, human; details: Homo sapiens
HCT-15 = experiment: NCI-60 growth inhibition: HCT-15 (Colon Cancer); assay type: cell-based, human; details: Homo sapiens
SK-MEL-5 = experiment: NCI-60 growth inhibition: SK-MEL-5 (Melanoma); assay type: cell-based, human; details: Homo sapiens
SF-539 = experiment: NCI-60 growth inhibition: SF-539 (CNS Cancer); assay type: cell-based, human; details: Homo sapiens
CCRF-CEM = experiment: NCI-60 growth inhibition: CCRF-CEM (Leukemia); assay type: cell-based, human; details: Homo sapiens
OVCAR-5 = experiment: NCI-60 growth inhibition: OVCAR-5 (Ovarian Cancer); assay type: cell-based, human; details: Homo sapiens
SN12C = experiment: NCI-60 growth inhibition: SN12C (Renal Cancer); assay type: cell-based, human; details: Homo sapiens
DU-145 = experiment: NCI-60 growth inhibition: DU-145 (Prostate Cancer); assay type: cell-based, human; details: Homo sapiens
COLO 205 = experiment: NCI-60 growth inhibition: COLO 205 (Colon Cancer); assay type: cell-based, human; details: Homo sapiens
HCT-116 = experiment: NCI-60 growth inhibition: HCT-116 (Colon Cancer); details: Homo sapiens, HCT-116
ACHN = experiment: NCI-60 growth inhibition: ACHN (Renal Cancer); assay type: cell-based, human; details: Homo sapiens
NCI-H522 = experiment: NCI-60 growth inhibition: NCI-H522 (Non-Small-Cell Lung Cancer); details: Homo sapiens, NCI-H522
MDA-MB-435 = experiment: NCI-60 growth inhibition: MDA-MB-435 (Melanoma); assay type: cell-based, human; details: Homo sapiens
OVCAR-3 = experiment: NCI-60 growth inhibition: OVCAR-3 (Ovarian Cancer); assay type: cell-based, human; details: Homo sapiens
LOX IMVI = experiment: NCI-60 growth inhibition: LOX IMVI (Melanoma); assay type: cell-based, human; details: Homo sapiens
M14 = experiment: NCI-60 growth inhibition: M14 (Melanoma); assay type: cell-based, human; details: Homo sapiens
SF-268 = experiment: NCI-60 growth inhibition: SF-268 (CNS Cancer); assay type: cell-based, human; details: Homo sapiens
K-562 = experiment: NCI-60 growth inhibition: K-562 (Leukemia); assay type: cell-based, human; details: Homo sapiens, K562
UACC-257 = experiment: NCI-60 growth inhibition: UACC-257 (Melanoma); assay type: cell-based, human; details: Homo sapiens
SNB-19 = experiment: NCI-60 growth inhibition: SNB-19 (CNS Cancer); assay type: cell-based, human; details: Homo sapiens
U251 = experiment: NCI-60 growth inhibition: U251 (CNS Cancer); assay type: cell-based, human; details: Homo sapiens, U-251
OVCAR-8 = experiment: NCI-60 growth inhibition: OVCAR-8 (Ovarian Cancer); assay type: cell-based, human; details: Homo sapiens
UO-31 = experiment: NCI-60 growth inhibition: UO-31 (Renal Cancer); assay type: cell-based, human; details: Homo sapiens
MOLT-4 = experiment: NCI-60 growth inhibition: MOLT-4 (Leukemia); assay type: cell-based, human; details: Homo sapiens
HT29 = experiment: NCI-60 growth inhibition: HT29 (Colon Cancer); assay type: cell-based, human; details: Homo sapiens, HT-29
UACC-62 = experiment: NCI-60 growth inhibition: UACC-62 (Melanoma); assay type: cell-based, human; details: Homo sapiens
MCF7 = experiment: NCI-60 growth inhibition: MCF7 (Breast Cancer); assay type: cell-based, human; details: Homo sapiens
RPMI-8226 = experiment: NCI-60 growth inhibition: RPMI-8226 (Leukemia); assay type: cell-based, human; details: Homo sapiens
T-47D = experiment: NCI-60 growth inhibition: T-47D (Breast Cancer); assay type: cell-based, human; details: Homo sapiens, T47D
786-0 = experiment: NCI-60 growth inhibition: 786-0 (Renal Cancer); assay type: cell-based, human; details: Homo sapiens
OVCAR-4 = experiment: NCI-60 growth inhibition: OVCAR-4 (Ovarian Cancer); assay type: cell-based, human; details: Homo sapiens
SK-MEL-28 = experiment: NCI-60 growth inhibition: SK-MEL-28 (Melanoma); assay type: cell-based, human; details: Homo sapiens
SW-620 = experiment: NCI-60 growth inhibition: SW-620 (Colon Cancer); assay type: cell-based, human; details: Homo sapiens
NCI-H460 = experiment: NCI-60 growth inhibition: NCI-H460 (Non-Small-Cell Lung Cancer); assay type: cell-based, human; details: Homo sapiens
TK-10 = experiment: NCI-60 growth inhibition: TK-10 (Renal Cancer); assay type: cell-based, human; details: Homo sapiens
MDA-MB-468 = experiment: NCI-60 growth inhibition: MDA-MB-468 (Breast Cancer); assay type: cell-based, human; details: Homo sapiens; MDA-MB-468 (Breast Cancer); read-out: GI50
A498 = experiment: NCI-60 growth inhibition: A498 (Renal Cancer); assay type: cell-based, human; details: Homo sapiens
MDA-MB-231/ATCC = experiment: NCI-60 growth inhibition: MDA-MB-231/ATCC (Breast Cancer); assay type: cell-based, human; details: Homo sapiens
EKVX = experiment: NCI-60 growth inhibition: EKVX (Non-Small-Cell Lung Cancer); assay type: cell-based, human; details: Homo sapiens
NCI-H23 = experiment: NCI-60 growth inhibition: NCI-H23 (Non-Small-Cell Lung Cancer); assay type: cell-based, human; details: Homo sapiens
IGROV1 = experiment: NCI-60 growth inhibition: IGROV1 (Ovarian Cancer); assay type: cell-based, human; details: Homo sapiens, IGROV-1
RXF 393 = experiment: NCI-60 growth inhibition: RXF 393 (Renal Cancer); assay type: cell-based, human; details: Homo sapiens
SK-MEL-2 = experiment: NCI-60 growth inhibition: SK-MEL-2 (Melanoma); assay type: cell-based, human; details: Homo sapiens
HS 578T = experiment: NCI-60 growth inhibition: HS 578T (Breast Cancer); assay type: cell-based, human; details: Homo sapiens
CAKI-1 = experiment: NCI-60 growth inhibition: CAKI-1 (Renal Cancer); assay type: cell-based, human; details: Homo sapiens
MALME-3M = experiment: NCI-60 growth inhibition: MALME-3M (Melanoma); assay type: cell-based, human; details: Homo sapiens
HOP-92 = experiment: NCI-60 growth inhibition: HOP-92 (Non-Small-Cell Lung Cancer); assay type: cell-based, human; details: Homo sapiens
[1] = tested on: MV4-11 cell line (myelomonocytic leukemia); details: MV4-11 cells
PC-3 = experiment: NCI-60 growth inhibition: PC-3 (Prostate Cancer); assay type: cell-based, human; details: Homo sapiens
[2] = Ibuprofen-TDZD analogs (Table 3)

C=C1C(=O)O[C@H]2[C@H]1CC/C(COC(=O)NCc1ccc(Cn3c(=O)sn(CCI)c3=O)cc1)=C\CC[C@@]1(C)O[C@@H]21 [BSK-187]
GI50 (BT-549): 2400 nM
GI50 (HCT-15): 1910 nM
GI50 (SK-MEL-5): 5370 nM
GI50 (SF-539): 1720 nM
GI50 (CCRF-CEM): 500 nM
GI50 (OVCAR-5): 3280 nM
GI50 (SN12C): 2160 nM
GI50 (DU-145): 1820 nM
GI50 (COLO 205): 1860 nM
GI50 (HCT-116): 1760 nM
GI50 (ACHN): 1890 nM
GI50 (NCI-H522): 1720 nM
GI50 (MDA-MB-435): 2450 nM
GI50 (OVCAR-3): 1640 nM
GI50 (LOX IMVI): 1690 nM
GI50 (M14): 1820 nM
GI50 (SF-268): 2410 nM
GI50 (K-562): 650 nM
GI50 (UACC-257): 2240 nM
GI50 (SNB-19): 6880 nM
GI50 (U251): 4670 nM
GI50 (OVCAR-8): 4550 nM
GI50 (UO-31): 1650 nM
GI50 (MOLT-4): 1350 nM
GI50 (HT29): 2100 nM
GI50 (UACC-62): 1980 nM
GI50 (MCF7): 1710 nM
GI50 (RPMI-8226): 1980 nM
GI50 (T-47D): 1320 nM
GI50 (786-0): 1820 nM
GI50 (OVCAR-4): 2020 nM
GI50 (SK-MEL-28): 2060 nM
GI50 (SW-620): 1660 nM
GI50 (NCI-H460): 6420 nM
GI50 (TK-10): 1910 nM
GI50 (MDA-MB-468): 1250 nM
GI50 (A498): 4440 nM
GI50 (MDA-MB-231/ATCC): 1770 nM
GI50 (EKVX): 2110 nM
GI50 (NCI-H23): 3460 nM
GI50 (IGROV1): 2080 nM
GI50 (RXF 393): 1610 nM
GI50 (SK-MEL-2): 11700 nM
GI50 (HS 578T): 7290 nM
GI50 (CAKI-1): 3790 nM
GI50 (MALME-3M): 1680 nM
GI50 (HOP-92): 1380 nM
LD50, 7AAD (μM) 24 h ([1]; MMB-TDZD analogs (Table 2)): 2.37 µM
LD50, Alamar blue (μM) 24 h ([1]; MMB-TDZD analogs (Table 2)): 1.0 µM
LD50, YOPRO (μM) 24 h ([1]; MMB-TDZD analogs (Table 2)): 1.21 µM
GI50 (PC-3): 1750 nM

CCCCCn1sc(=O)n(Cc2ccc(CNC(=O)C(C)c3ccc(CC(C)C)cc3)cc2)c1=O (stereo not shown) [BSK-235]
LD50, 7AAD (μM) 24 h [1, 2]: 2.54 µM
LD50, Alamar blue (μM) 24 h [1, 2]: 3.50 µM
LD50, YOPRO (μM) 24 h [1, 2]: 3.2 µM

CC(C)Cc1ccc(C(C)C(=O)NCc2ccc(Cn3c(=O)sn(CCCCl)c3=O)cc2)cc1 (stereo not shown) [BSK-236]
LD50, 7AAD (μM) 24 h [1, 2]: 1.75 µM
LD50, Alamar blue (μM) 24 h [1, 2]: 2.50 µM
LD50, YOPRO (μM) 24 h [1, 2]: 1.77 µM

CCCCn1sc(=O)n(Cc2ccc(CNC(=O)C(C)c3ccc(CC(C)C)cc3)cc2)c1=O (stereo not shown) [BSK-238]
LD50, 7AAD (μM) 24 h [1, 2]: 11.2 µM
LD50, Alamar blue (μM) 24 h [1, 2]: 10.00 µM
LD50, YOPRO (μM) 24 h [1, 2]: 10.9 µM

CC(C)Cc1ccc(C(C)C(=O)NCc2ccc(Cn3c(=O)sn(-c4ccccc4)c3=O)cc2)cc1 (stereo not shown) [BSK-239]
LD50, 7AAD (μM) 24 h [1, 2]: 4.91 µM
LD50, Alamar blue (μM) 24 h [1, 2]: 4.70 µM
LD50, YOPRO (μM) 24 h [1, 2]: 4.24 µM

CC(C)Cc1ccc(C(C)C(=O)NCc2ccc(Cn3c(=O)sn(CCCI)c3=O)cc2)cc1 (stereo not shown) [BSK-260]
LD50, 7AAD (μM) 24 h [1, 2]: 1.42 µM
LD50, Alamar blue (μM) 24 h [1, 2]: 1.49 µM
LD50, YOPRO (μM) 24 h [1, 2]: 1.48 µM

C=C1C(=O)O[C@H]2[C@H]1CC/C(COC(=O)NCc1ccc(Cn3c(=O)sn(-c4ccc(C#N)cc4)c3=O)cc1)=C\CC[C@@]1(C)O[C@@H]21 [BSK-263]
LD50, 7AAD (μM) 24 h ([1]; MMB-TDZD analogs (Table 2)): 0.23 µM
LD50, Alamar blue (μM) 24 h ([1]; MMB-TDZD analogs (Table 2)): 0.75 µM
LD50, YOPRO (μM) 24 h ([1]; MMB-TDZD analogs (Table 2)): 0.13 µM

CC(C)Cc1ccc(C(C)C(=O)NCc2ccc(Cn3c(=O)sn(CCI)c3=O)cc2)cc1 (stereo not shown) [BSK-265]
LD50, 7AAD (μM) 24 h [1, 2]: 2.71 µM
LD50, Alamar blue (μM) 24 h [1, 2]: 2.50 µM
LD50, YOPRO (μM) 24 h [1, 2]: 2.87 µM

CC(C)Cc1ccc(C(C)C(=O)NCc2ccc(Cn3c(=O)sn(-c4ccc(Cl)cc4)c3=O)cc2)cc1 (stereo not shown) [BSK-266]
LD50, 7AAD (μM) 24 h [1, 2]: 10.7 µM
LD50, Alamar blue (μM) 24 h [1, 2]: 12.00 µM
LD50, YOPRO (μM) 24 h [1, 2]: 10.6 µM

CC(C)Cc1ccc(C(C)C(=O)NCc2ccc(Cn3c(=O)sn(-c4ccc(C#N)cc4)c3=O)cc2)cc1 (stereo not shown) [BSK-267]
LD50, 7AAD (μM) 24 h [1, 2]: 14.8 µM
LD50, Alamar blue (μM) 24 h [1, 2]: 12.00 µM
LD50, YOPRO (μM) 24 h [1, 2]: 17.3 µM

C=C1C(=O)O[C@H]2[C@H]1CC/C(COC(=O)NCc1ccc(Cn3c(=O)sn(-c4ccc(Cl)cc4)c3=O)cc1)=C\CC[C@@]1(C)O[C@@H]21 [BSK-268]
LD50, 7AAD (μM) 24 h ([1]; MMB-TDZD analogs (Table 2)): 0.55 µM
LD50, Alamar blue (μM) 24 h ([1]; MMB-TDZD analogs (Table 2)): 0.63 µM
LD50, YOPRO (μM) 24 h ([1]; MMB-TDZD analogs (Table 2)): 0.68 µM
LD50 ([1]; values in text): 130 nM

COc1ccc(-n2sc(=O)n(Cc3ccc(CNC(=O)C(C)c4ccc(CC(C)C)cc4)cc3)c2=O)cc1 (stereo not shown) [BSK-270]
LD50, 7AAD (μM) 24 h [1, 2]: 8.21 µM
LD50, Alamar blue (μM) 24 h [1, 2]: 9.00 µM
LD50, YOPRO (μM) 24 h [1, 2]: 6.14 µM

Cn1sc(=O)n(Cc2ccccc2)c1=O [TDZD-8, 4-benzyl, 2-methyl, 1,2,4-thiadiazolidine, 3,5 dione, reference compound]
LD50, 7AAD (μM) 24 h [1, 2]: 3.61 µM
LD50, 7AAD (μM) 24 h ([1]; MMB-TDZD analogs (Table 2)): 3.61 µM
LD50, Alamar blue (μM) 24 h [1, 2]: 4.5 µM
LD50, Alamar blue (μM) 24 h ([1]; MMB-TDZD analogs (Table 2)): 4.5 µM
LD50, YOPRO (μM) 24 h [1, 2]: 3.29 µM
LD50, YOPRO (μM) 24 h ([1]; MMB-TDZD analogs (Table 2)): 3.29 µM
